In patent publication US20170000889A1, “STABLE BROMFENAC OPHTHALMIC SOLUTION” (SENTISS PHARMA PRIVATE LIMITED, priority 2013, published 2017):

Test: Haziness of citrate-buffered bromfenac formulation on addition of BKC, effect of surfactants
Format: physicochemical
Conditions: for Degradation of the bromfenac solution with the surfactant: compared among different surfactants; for Haziness after addition of BKC to the citrate formulation: surfactant added to citrate-buffered bromfenac solution with benzalkonium chloride
Description: In yet other embodiment of the present invention, citrate buffer is used instead of borate buffer but when benzalkonium chloride (BKC) was added in the citrate formulation it causes haziness of the formulation.
The inventors of the present invention extensively studied how to overcome the haziness occurred during the addition of BKC.

Row | Degradation of the bromfenac solution with the surfactant | Haziness after addition of BKC to the citrate formulation | Substance
1 | least amount of degradation | remove the haziness | polyoxyl-15-hydroxystearate
2 | least amount of degradation | remove the haziness | polysorbate 80
